In PubChem BioAssay (NCI):
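Dose response: 5 concentrations. Exposure: 48 h. Format: 96-well plates. Endpoint: linear interpolation; highest concentration if not reached. GI50 = concentration required for 50% inhibition of growth. At the TGI there is no net growth.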

Assays:
Test in all cases: inhibition of tumour cell growth, NCI panel, 48 h
RPMI-8226 leukemia = test system: RPMI-8226 leukemia
COLO 205 colon = test system: COLO 205 colon
HOP-92 NSCLC = test system: HOP-92 NSCLC
SNB-19 CNS = test system: SNB-19 CNS
ACHN renal = test system: ACHN renal
HCT-15 colon = test system: HCT-15 colon
OVCAR-4 ovarian = test system: OVCAR-4 ovarian
IGROV1 ovarian = test system: IGROV1 ovarian
MOLT-4 leukemia = test system: MOLT-4 leukemia
SNB-75 CNS = test system: SNB-75 CNS

Compound | GI50 (RPMI-8226 leukemia) | TGI (RPMI-8226 leukemia) | GI50 (COLO 205 colon) | TGI (COLO 205 colon) | GI50 (HOP-92 NSCLC) | TGI (HOP-92 NSCLC) | GI50 (SNB-19 CNS) | TGI (SNB-19 CNS) | GI50 (ACHN renal) | TGI (ACHN renal) | GI50 (HCT-15 colon) | TGI (HCT-15 colon) | GI50 (OVCAR-4 ovarian) | TGI (OVCAR-4 ovarian) | GI50 (IGROV1 ovarian) | TGI (IGROV1 ovarian) | GI50 (MOLT-4 leukemia) | TGI (MOLT-4 leukemia) | GI50 (SNB-75 CNS) | TGI (SNB-75 CNS)
COc1ccc(COc2ccc(Cc3cnc(N)nc3N)cc2OC)cc1 | > 19.9 µM | > 25 µM | 4.27 µM | 8.15 µM | 1.29 µM | > 21 µM | > 25 µM | > 25 µM | > 25 µM | > 25 µM | > 23.7 µM | > 25 µM | 11 µM | > 25 µM | > 25 µM | > 25 µM | > 25 µM | > 25 µM | 8.09 µM | > 25 µM
C#Cc1cccc(NC(=O)C2CCCCN2C(=O)CCl)c1 (stereo not drawn) | 18 µM | 51.5 µM | 15.6 µM | 34.7 µM | 12.5 µM | 43.3 µM | > 82.5 µM | > 82.5 µM | 13.1 µM | 24.5 µM | 9.61 µM | 23.4 µM | 8.77 µM | 24.5 µM | 9.72 µM | 27.1 µM | 12 µM | 52.9 µM | 17.9 µM | > 82.5 µM
CN1c2cccc[c]2[Sn]([CH3])([CH3])[c]2ccccc21 | < 0.0119 µM | 0.0316 µM | 0.015 µM | 0.0572 µM | 0.01 µM | 0.104 µM | 0.0212 µM | 0.215 µM | < 0.0155 µM | 0.17 µM | < 0.0125 µM | 0.116 µM | < 0.0121 µM | 0.232 µM | < 0.0166 µM | 0.14 µM | 0.0101 µM | 0.936 µM | < 0.0142 µM | 0.192 µM
Clc1cc2ns[s+]c2cc1Cl |  | > 100 µM |  | > 100 µM |  | > 100 µM |  | > 100 µM |  | > 100 µM |  | > 100 µM |  | > 100 µM |  | > 100 µM |  | > 100 µM |  | > 64.2 µM
Nc1nc(N)c2c(n1)NC(c1ccc(Cl)cc1)C1CCc3ccccc3C1=N2 (stereo not drawn) | 2.75 µM | 11.5 µM | 2.78 µM | 9.05 µM | 2.26 µM | 9.83 µM | 16.8 µM | 30.4 µM | 4.72 µM | 18.3 µM | 4.16 µM | 18.5 µM | 6.45 µM | 21 µM | 6.16 µM | 20.4 µM |  |  | 13 µM | 26.8 µM
COc1cc(-c2cc(-c3ccc(Nc4nc(Nc5ccc(Cl)cc5)nc(Nc5ccc(Cl)cc5)n4)cc3)no2)cc(OC)c1OC | 1.75 µM | > 100 µM | 2.26 µM | 21.3 µM | 0.0166 µM | 0.32 µM | 26.8 µM | > 100 µM | 14.9 µM | > 100 µM | 18.9 µM | > 100 µM | 57.1 µM | > 100 µM | 3.22 µM | > 100 µM | 1.23 µM | 23.7 µM | 12.7 µM | > 100 µM
C=C1[C@H](O)C[C@@H](C(C)C(O)CC=C(C)C)[C@@H](O)[C@@H]2C(C)=CC[C@@H]12 (stereo partly drawn) | > 100 µM | > 100 µM | > 100 µM | > 100 µM | > 100 µM | > 100 µM | > 100 µM | > 100 µM | > 100 µM | > 100 µM | > 100 µM | > 100 µM | > 100 µM | > 100 µM | > 100 µM | > 100 µM | 35.1 µM | > 100 µM | > 100 µM | > 100 µM
OCC1OC(n2cnc3cc(Cl)c(Cl)cc32)C(O)C1O (stereo not drawn) | 30 µM | > 72.5 µM | 23.8 µM | > 84.5 µM | 35.2 µM | 99 µM | 25.3 µM | > 100 µM | 12.7 µM | 34.6 µM | 14.8 µM | 37.5 µM | 62.8 µM | > 100 µM | 12.5 µM | 34.4 µM | 3.85 µM | > 41.3 µM | 31.2 µM | > 74.2 µM
NC1=NN(c2ccccc2)C(=O)C1/C(=N\NC(=O)c1cc2ccccc2cc1O)C(=O)Nc1ccc(Cl)c(Cl)c1 (stereo not drawn) |  | > 100 µM |  | 36.6 µM |  | 92 µM |  | > 100 µM |  | > 100 µM |  | > 100 µM |  | > 100 µM |  | > 100 µM |  | 75.6 µM |  | > 100 µM
COc1ccc(NC(=O)CC2SC(=Nc3ccc(Cl)cc3C)NC2=O)c([N+](=O)[O-])c1 (stereo not drawn) |  | > 100 µM |  |  |  | > 100 µM |  | > 100 µM |  | > 100 µM |  | > 100 µM |  | > 100 µM |  | > 100 µM |  | > 100 µM |  | > 100 µM
CC(=O)Nc1ccc2c(c1)[nH]c(=O)c1cc(NC(C)=O)ccc12 | > 100 µM | > 100 µM | > 100 µM | > 100 µM | 31.9 µM | > 100 µM | > 100 µM | > 100 µM | > 100 µM | > 100 µM | > 100 µM | > 100 µM | > 100 µM | > 100 µM | > 100 µM | > 100 µM | 20 µM | 50 µM | 41.2 µM | > 100 µM
Cc1c(-c2c(F)cc(C(N)=O)c3[nH]c4c(c23)CC[C@H](C(C)(C)O)C4)cccc1-n1c(=O)c2cccc(F)c2n(C)c1=O | 2.82 µM | 9.01 µM |  |  | 1.01 µM | 6.94 µM | 7.22 µM | > 100 µM | 2.8 µM | > 100 µM | 2.7 µM | > 100 µM | 6.31 µM | > 100 µM | 3.19 µM | > 100 µM | 1.77 µM | 6.58 µM |  | 
Cn1cc(-c2nc(-c3c[nH]c4ccccc34)cs2)c2cccnc21 | 0.541 µM | 32.3 µM | 0.188 µM | 1.03 µM | 0.295 µM | 17.2 µM | 0.53 µM | > 100 µM | 0.527 µM | > 100 µM | 0.221 µM | > 100 µM | 0.756 µM | > 60.4 µM | 1.13 µM | > 100 µM | 0.757 µM | > 60.3 µM | 0.161 µM | 0.779 µM
COc1cc(OC)c(OC)cc1/C=C/c1ccc2ccccc2n1 |  | > 10 µM |  | > 10 µM |  | > 10 µM |  |  |  | > 10 µM |  | > 10 µM |  | > 10 µM |  | > 10 µM |  | > 10 µM |  | > 10 µM
OCC1OC(N2CCN(C3OC(CO)C(O)C(O)C3O)CC2)C(O)C(O)C1O (stereo not drawn) |  | > 100 µM |  | > 100 µM |  | > 100 µM |  | > 100 µM |  | > 100 µM |  | > 100 µM |  | > 100 µM |  | > 100 µM |  | > 100 µM |  | > 100 µM
CC1O[C@@H]2CCCCC(=O)[C@]2(C)[C@H]1C (stereo partly drawn) |  | > 100 µM |  | > 100 µM |  | > 100 µM |  | > 100 µM |  | > 100 µM |  | > 100 µM |  | > 100 µM |  | > 100 µM |  | > 100 µM |  | > 100 µM
Nc1[nH]c(=S)[nH]c(=O)c1N=Nc1c(Br)cc(S(N)(=O)=O)cc1Br |  | > 100 µM |  | > 100 µM |  | > 100 µM |  | > 100 µM |  | > 100 µM |  | > 100 µM |  | > 100 µM |  | > 100 µM |  | > 100 µM |  | > 100 µM
O=C1/C(=C/c2ccc(C(=O)O)cc2)CNC/C1=C\c1ccc(C(=O)O)cc1 |  | > 100 µM |  | > 100 µM |  | > 100 µM |  |  |  | > 100 µM |  | > 100 µM |  | > 100 µM |  | > 100 µM |  | > 100 µM |  | > 100 µM
CN1C(=O)CC(CC(=O)C2CCCCC2=O)CC1=O (stereo not drawn) |  | > 100 µM |  | > 100 µM |  | > 100 µM |  | > 100 µM |  | > 100 µM |  |  |  | > 100 µM |  | > 100 µM |  | > 100 µM |  | > 100 µM
CC1NCCC(CC(=O)O)C1CC(=O)O (stereo not drawn) |  | > 100 µM |  | > 100 µM |  | > 100 µM |  | > 100 µM |  | > 100 µM |  | > 100 µM |  | > 100 µM |  | > 100 µM |  |  |  | > 100 µM
O=Cc1cc2sc(C=O)cc2s1 |  | > 100 µM |  | > 100 µM |  | > 100 µM |  | > 100 µM |  |  |  | > 100 µM |  | > 100 µM |  | > 100 µM |  | > 100 µM |  | > 100 µM
COc1ccc(N2CCN(c3nc(-c4ccccn4)nc4sc5c(c34)CCCCCC5)CC2)cc1 | 3.74 µM | > 100 µM | 5.61 µM | > 100 µM | 3.24 µM | > 100 µM |  |  | 5.09 µM | > 100 µM | 4.26 µM | > 100 µM | 8.58 µM | > 100 µM | 5.34 µM | > 100 µM | 3.26 µM | > 100 µM | 26.1 µM | > 100 µM
OCC1OC(NO)C(O)C(O)C1O (stereo not drawn) |  | > 100 µM |  | > 100 µM |  | > 100 µM |  | > 100 µM |  | > 100 µM |  | > 100 µM |  | > 100 µM |  | > 100 µM |  | > 100 µM |  | 
C/C(COc1ccccc1)=N\NC(N)=S |  | > 100 µM |  | > 100 µM |  | > 100 µM |  |  |  | > 100 µM |  | > 100 µM |  | > 100 µM |  | > 100 µM |  | > 100 µM |  | > 100 µM
CCCCCCCCCCCCCC(=O)OCC1OC(=O)C(O)C1O (stereo not drawn) |  | > 100 µM |  | > 100 µM |  | > 100 µM |  | > 100 µM |  | > 100 µM |  |  |  | > 100 µM |  | > 100 µM |  | > 100 µM |  | > 100 µM
